Results as given in US20180312930A1, “METHOD FOR ANALYZING A SAMPLE TO DETECT THE PRESENCE OF SULPHITE-RESISTANT YEASTS OF THE BRETTANOMYCES BRUXELLENSIS SPECIES AND KIT FOR IMPLEMENTING SAME” (UNIVERSITE DE BORDEAUX, priority 2015, published 2018).

Experiments:
Test in all cases: capacity of strains to grow in the presence of sulphur dioxide
Type in all cases: cell-based
[1] = system: Brettanomyces bruxellensis strains of the beer triploid group; conditions: 14 days of culture, 8 strains tested
Method: (§1) The 33 strains of Brettanomyces bruxellensis are cultivated in a medium in the absence or the presence of different concentrations of sulphur dioxide SO2 in the culture medium (0 mg/L, 0.2 mg/L, 0.4 mg/L and 0.6 mg/L).
(§2) After 14 days of culture, the capacity of the strains to grow in the different media is evaluated.

[2] = system: Brettanomyces bruxellensis strains of the oenological triploid group; conditions: 14 days of culture, 8 strains tested
Method: as §1, §2

[3] = system: Brettanomyces bruxellensis strains of the oenological diploid group; conditions: 14 days of culture, 17 strains tested
Method: as §1, §2

[4] = 0.2 mg/L active SO2 in the culture medium
[5] = 0.4 mg/L active SO2 in the culture medium
[6] = 0.6 mg/L active SO2 in the culture medium

**Q.** `O=S=O` [sulphur dioxide] was tested. Which “Number of strains with the capacity to grow” value (shortened to “Number of strains”) [1, 4] did it give?
**A.** Its value is 3.

**Q.** What about the “Number of strains” value [1, 5] of the same compound?
**A.** The value was 0.

**Q.** And the “Number of strains” value [1, 6]?
**A.** Its value is 0.

**Q.** What about the “Number of strains” value [2, 4] of the same compound?
**A.** The value was 8.

**Q.** And the “Number of strains” value [2, 5]?
**A.** Its value is 8.

**Q.** What about the “Number of strains” value [2, 6] of the same compound?
**A.** Its value is 4.

**Q.** What about the “Number of strains” value [3, 4] of the same compound?
**A.** Its value is 6.

**Q.** What about the “Number of strains” value [3, 5] of the same compound?
**A.** Its value is 1.

**Q.** And the “Number of strains” value [3, 6]?
**A.** Its value is 0.
